We go through 11 molecules from patent US10202367B2, “Heterocyclic compounds and methods of use thereof” (priority 2014, dated 2019).

One data set in a line: Cell permeability. Format: in vitro ADME.
The nature of data set [1]: Aqueous solubility in PBS. Format: physicochemical.
The nature of the next data set: in vitro. As to conditions: rat, microsomes, Rat liver microsomes t ½ (min). (In general: Liver microsomes are a subcellular fraction often used to study metabolism.)
A further data set relates to HCVsc, genotype 2a. In kind it is cell-based, Hepatitis C virus. As to conditions: 10 μM.
For a further data set, the system named is GT 2a replicon RNA. Format: cell-based, Hepatitis C virus.
In data set [2] the test system is HCV replicon (GT 2a) cells. In kind it is cell-based, Hepatitis C virus.
The next data set relates to HCVpp GT 1a. As to the kind of experiment: HCVpp entry assay. Particulars: Huh7.5.1 cells. Format: cell-based, Hepatitis C virus.
The next data set concerns VSVpp. In kind it is cell-based, vesicular stomatitis virus.
A further data set has as its system HCVcc-RLuc. Nature of the data set: HCVcc-RLuc assay, combination of compound 3 with anti-HCV drugs (CalcuSyn / MacSynergy II). In kind it is cell-based, Hepatitis C virus.
The nature of data set [3]: Stability in PBS or PBS/acetonitrile (1/1). As to conditions: 10 μM, PBS and PBS/acetonitrile (1/1), pH 7.4, room temperature, after 48 hours. In kind it is physicochemical. How it is done:
(§1) Procedure: […] The mixtures were sampled every hour for eight hours or every 8 hours for 48 hours and analyzed by RP HPLC/UV/HRMS. The analytical RP HPLCUV/HRMS system utilized for the analysis was a Waters Acquity system with UV-detection and mass-detection (Waters SQD). […] Absolute areas under the curve were compared at each time point to determine relative percent compound remaining. The masses of potential adducts were searched for in the final samples to determine if any detectable adduct formed. All samples were prepared in duplicate and the average plotted. Ethacrynic acid, a known Michael acceptor, was used as a positive control. […] To determine the stability of the probe compound to nucleophilic degradation, the compound was dissolved in the two solvent systems above in the presence of 50 μM dithiothreitol (DTT) (FIGS. 2A and 2B).

The nature of data set [4]: Stability to nucleophilic degradation in presence of 50 μM dithiothreitol. In kind it is physicochemical. Particulars: 10 μM, 50 μM DTT, PBS and PBS/acetonitrile (1/1), after 8 hours. Here is the method: as §1

Molecules are shown by their SMILES. Several values for one entry are separate records, joined by “and”; a condition that tells them apart may be missing. Equal entries are not always repeated.

Consider `Cc1ccccc1-c1nc(CN2CCC(C(=O)NCCN3CCCCC3)CC2)c(C)o1` [Compound 11], for which the “Permeability (le^−6 cm/s)” value in “Cell permeability” amounted to 987.3 le^−6 cm/s. In addition, the “Sol.” value in [1] came out at 47 µg/mL.

Usually half-life stands for the time needed for the level to fall by half in the phase considered. In the case of `Cc1ccccc1-c1nc(CN2CCC[C@@H](C(=O)NCCCN3C[C@H](C)C[C@H](C)C3)C2)c(C)o1` [Compound 67], the “Permeability (le^−6 cm/s)” value in the data set “Cell permeability” is given as 864.8 le^−6 cm/s. The “Sol.” value in [1] was 57.8 µg/mL. The molecule also registered a half-life in “in vitro” of 3.9 min.

On to `Cc1ccccc1-c1nc(CN2CCC(C(=O)NCCCN3C[C@H](C)C[C@H](C)C3)CC2)c(C)o1` [Compound 3], for which the “Sol.” value in data set [1] came to 53.9 µg/mL. In addition, the “inhibitory activity on HCVsc infection level” value in the data set on HCVsc, genotype 2a is recorded as “dramatic inhibitory activities”. Moreover, in the data set on GT 2a replicon RNA (10 μM), the “inhibitory effect on HCV replication, transient transfection with GT 2a replicon RNA” value was “no inhibitory effect”. Further, the “% RLU at 10 μM, HCV subgenomic replicon Transient GT 2a” value in the data set on GT 2a replicon RNA (Huh7.5.1 cells, 48 h) amounted to 105 % RLU. Further, the “inhibitory effect on HCV replication, GT 2a replicon cell line” value in data set [2] (10 μM) was “no inhibitory effect”. Moreover, in [2] (48 h), the “% RLU at 10 μM, HCV subgenomic replicon GT 2a cell line” value is 103 % RLU. In addition, the “% RLU at 10 μM, HCVpp GT 1a” value in the data set on HCVpp GT 1a is less than 30 % RLU. In addition, the “% RLU at 10 μM, VSV pp” value with VSVpp is roughly 50 % RLU. Moreover, the “antiviral effect in combination with ribavirin, interferon, telaprevir, daclatasvir, cyclosporin A and 2′-C-methylcytidine” value in the data set on HCVcc-RLuc (combination) is given as “synergistic”.

For the molecule `Cc1ccccc1-c1nc(CC2CCC[C@@H](C(=O)CCCCN3C[C@H](C)C[C@H](C)C3)C2)c(C)o1` (stereo partly shown) [Compound 66], the “Permeability (le^−6 cm/s)” value in the data set “Cell permeability” is 864.8 le^−6 cm/s. In addition, the “Sol.” value in [1] was determined as 57.8 µg/mL. Besides, the half-life in the data set “in vitro” is 3.9 min.

As to `CC1CCCN(CCCNC(=O)C2CCN(Cc3oc(-c4cc(C(F)(F)F)cc(C(F)(F)F)c4)nc3C(F)(F)F)CC2)C1` (stereo not shown) [Compound 69], the “Permeability (le^−6 cm/s)” value in the data set “Cell permeability” was greater than 1397 le^−6 cm/s. Moreover, in the data set “in vitro”, the half-life was found to be 5.7 min.

The solubility is the concentration that dissolves in the medium under given conditions. A low value points to a poorly soluble substance. In the case of `Cc1cccc(Cl)c1-c1nc(CN2CCC(C(=O)NCCCN3C[C@H](C)C[C@H](C)C3)CC2)c(C)o1` [Compound 1, 1-((2-(2-Chloro-6-methylphenyl)-5-methyloxazol-4-yl)methyl)-N-(3-(cis-3,5-dimethylpiperidin-1-yl)propyl)piperidine-4-carboxamide], in data set [1], the “Sol.” value was greater than 74.0 µg/mL. The solubility in data set [1] (phosphate buffered saline (PBS), aqueous buffer, PBS, pH 7.4, room temperature (23° C.)) is > 74 µg/mL and > 147 µM. The “sample still detected in the supernatant” value in data set [3] is given as “greater than 97%”. The “degradation in presence of dithiothreitol” value in [4] was “no measurable degradation”.

Regarding `C[C@@H]1C[C@H](C)CN(CCCNC(=O)C2CCN(Cc3oc(-c4cc(C(F)(F)F)cc(C(F)(F)F)c4)nc3C(F)(F)F)CC2)C1` [Compound 68], in “Cell permeability”, the “Permeability (le^−6 cm/s)” value came to 1061 le^−6 cm/s. Also, the “Sol.” value in [1] is 2.5 µg/mL. In the data set “in vitro”, this molecule registered a half-life of 16.4 min.

On to `CCN(CC)CCCCNC(=O)C1CCN(Cc2nc(-c3cc(OC)cc(OC)c3)oc2C)CC1` [Compound 8], for which the “Permeability (le^−6 cm/s)” value in “Cell permeability” was determined as 10.4 le^−6 cm/s. For the same molecule, in [1], the “Sol.” value is greater than 72.0 µg/mL.

Regarding `NC(=O)c1ncn([C@@H]2O[C@H](CO)[C@@H](O)[C@H]2O)n1` [Ribavirin], in the data set on HCVcc-RLuc, the “CalcuSyn CI value (combination index)” value was 0.770, the “CalcuSyn synergy volume (level of synergy)” value was “++ (key: +/−: nearly additive (0.9 < CI < 1.1); ++: moderate synergy (0.7 < CI < 0.85); +++: synergy (0.3 < CI < 0.7))” and the “MacSynergy synergy volume (level of synergy)” value was “+++ (key: ++: moderate synergy (5 < log volume < 9); +++: strong synergy (log volume > 9))”.

For the molecule `COC(=O)N[C@H](C(=O)N1CCC[C@H]1c1nc(-c2ccc(-c3ccc(-c4c[nH]c([C@@H]5CCCN5C(=O)[C@@H](NC(=O)OC)C(C)C)n4)cc3)cc2)c[nH]1)C(C)C` [Daclatasvir], in the data set with HCVcc-RLuc, the “CalcuSyn CI value (combination index)” value is listed as 0.510 and the “CalcuSyn synergy volume (level of synergy)” value is “+++ (key: +/−: nearly additive (0.9 < CI < 1.1); ++: moderate synergy (0.7 < CI < 0.85); +++: synergy (0.3 < CI < 0.7))”.

As for `Cc1oc(-c2c(C)c(C)c(C)c(C)c2C)nc1CN1CCC(C(=O)NCCCN2C[C@H](C)C[C@H](C)C2)CC1` [Compound 56], the “Permeability (le^−6 cm/s)” value in the data set “Cell permeability” is given as 455.2 le^−6 cm/s.
